Common to all, as to format: functional, cell-based
Series [1] addresses T1, Solute carrier family 15 member 1 (Homo sapiens) (UniProt P46059).
T1 sequence (whole entry): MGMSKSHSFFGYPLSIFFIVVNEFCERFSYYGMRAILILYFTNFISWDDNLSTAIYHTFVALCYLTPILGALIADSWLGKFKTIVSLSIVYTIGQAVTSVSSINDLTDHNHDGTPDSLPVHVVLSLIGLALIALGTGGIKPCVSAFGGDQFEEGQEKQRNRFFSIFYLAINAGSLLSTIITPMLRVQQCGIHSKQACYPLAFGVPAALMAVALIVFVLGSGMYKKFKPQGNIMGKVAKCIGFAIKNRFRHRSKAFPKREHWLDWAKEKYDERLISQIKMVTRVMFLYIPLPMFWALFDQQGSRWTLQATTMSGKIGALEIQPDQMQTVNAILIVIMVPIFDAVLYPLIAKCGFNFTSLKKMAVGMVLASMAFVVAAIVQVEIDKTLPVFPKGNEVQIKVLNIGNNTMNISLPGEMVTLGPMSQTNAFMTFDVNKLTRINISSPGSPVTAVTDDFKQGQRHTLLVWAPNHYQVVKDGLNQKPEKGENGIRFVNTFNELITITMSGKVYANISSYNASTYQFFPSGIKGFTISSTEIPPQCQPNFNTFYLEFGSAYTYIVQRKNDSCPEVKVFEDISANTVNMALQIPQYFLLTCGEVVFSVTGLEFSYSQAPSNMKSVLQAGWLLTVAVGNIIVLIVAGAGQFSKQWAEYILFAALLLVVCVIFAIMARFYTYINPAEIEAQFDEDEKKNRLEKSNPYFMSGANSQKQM
Description: TP_TRANSPORTER: inhibition of Gly-Sar uptake (Gly-Sar: 20 uM, Ala-Pro: 10000 uM) in PEPT1-expressing HeLa cells. The arrangement: scale not given: the % may be the effect or the level left.

For series [2], the target named is T1, Solute carrier family 15 member 1 (Homo sapiens). Description: TP_TRANSPORTER: inhibition of Gly-Sar uptake (Gly-Sar: 20 uM, Gly-Gly-Ile: 10000 uM) in PEPT1-expressing HeLa cells. Set-up: scale not given: the % may be the effect or the level left.
Series [3] shares this target. Description: TP_TRANSPORTER: inhibition of Gly-Sar uptake (Gly-Sar: 20 uM, Gly-Gly-Pro: 10000 uM) in PEPT1-expressing HeLa cells. The arrangement: scale not given: the % may be the effect or the level left.
The target is the same in series [4]. In words: TP_TRANSPORTER: inhibition of Gly-Sar uptake (Gly-Sar: 20 uM, Gly-Pro: 10000 uM) in PEPT1-expressing HeLa cells. Set-up: scale not given: the % may be the effect or the level left.
The target is the same in series [5]. Description: TP_TRANSPORTER: inhibition of Gly-Sar uptake (Gly-Sar: 20 uM, Leu-Pro: 10000 uM) in PEPT1-expressing HeLa cells. The arrangement: scale not given: the % may be the effect or the level left.
Substrate in series [6]: CN(CC(=O)O)C(=O)CN
In words: TP_TRANSPORTER: uptake in PEPT1-expressing HeLa cells.

The values that follow come from ChEMBL document CHEMBL2074255, “Human intestinal H+/peptide cotransporter. Cloning, functional expression, and chromosomal localization” (J Biol Chem, 1995).

Residues, ends and D or L forms follow the SMILES beside them.

`C[C@H](N)C(=O)N1CCC[C@H]1C(=O)O` (H-Ala-Pro-OH): the Activity in series [1] was 8%.
As to `CC[C@H](C)[C@H](NC(=O)CNC(=O)CN)C(=O)O` (H-Gly-Gly-Ile-OH), the Activity in series [2] was 10%.
With `NCC(=O)NCC(=O)N1CCC[C@H]1C(=O)O` (H-Gly-Gly-Pro-OH), the Activity in series [3] is 13%.
As for `NCC(=O)N1CCC[C@H]1C(=O)O` (H-Gly-Pro-OH), in series [4], the Activity was 7%.
Regarding `CC(C)C[C@H](N)C(=O)N1CCC[C@H]1C(=O)O` (H-Leu-Pro-OH), the Activity in series [5] is 8%.

B1: Solute carrier family 15 member 1 (Homo sapiens), P46059 (protein)
chain: T1 sequence (whole entry)
In the case of B1, the Km (commonly the substrate concentration at which the rate is half of its maximum) in series [6] came to 290 µM.
